Data published in patent publication US20240116912A1, “COMPOUNDS AND METHODS FOR MODULATING FXR” (Terns Pharmaceuticals, Inc., priority 2020, published 2024).

Columns and labels:
[1] = biological target: full length human FXR protein (Homo sapiens (Human), UniProt Q96RI1); assay: FXR cellular assay (FXR-SRCP β-gal enzyme fragment complementation in CHO-K1 cells, chemiluminescence); type: cell-based; conditions: CHO-K1 cells with SRCP-EA and ProLink-labeled FXR, 0-10 micromolar compound, 37° C. for 6h, read-out: EC50 FXR-cell Luminescence/
Sequence of full length human FXR protein (Q96RI1 whole entry, the tested form may be a part): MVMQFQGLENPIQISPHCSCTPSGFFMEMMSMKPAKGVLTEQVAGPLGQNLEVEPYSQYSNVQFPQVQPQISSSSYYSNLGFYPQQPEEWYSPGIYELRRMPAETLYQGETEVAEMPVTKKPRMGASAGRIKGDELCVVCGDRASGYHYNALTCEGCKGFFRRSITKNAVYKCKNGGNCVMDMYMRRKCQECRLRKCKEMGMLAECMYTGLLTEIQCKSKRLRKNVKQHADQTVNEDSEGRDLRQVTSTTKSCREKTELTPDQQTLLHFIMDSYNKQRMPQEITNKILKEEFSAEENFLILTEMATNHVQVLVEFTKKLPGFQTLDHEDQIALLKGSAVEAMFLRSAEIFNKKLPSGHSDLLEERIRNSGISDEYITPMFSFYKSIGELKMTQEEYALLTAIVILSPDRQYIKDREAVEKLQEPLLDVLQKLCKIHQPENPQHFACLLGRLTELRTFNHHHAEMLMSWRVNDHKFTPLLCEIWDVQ
Excerpt: A cell based FXR assay was used to detect protein-protein interactions between an activated (ligand-bound), full length human FXR protein and a nuclear fusion protein containing a Steroid Receptor Coactivator Peptide (SCRP) domain. In this approach, two weakly complementing fragments of the 3-gal enzyme were expressed within stably transfected Chinese Hamster Ovary (CHO-K1) cells. The complementing fragments of the 3-gal enzyme (ProLink, PK; and Enzyme Acceptor, EA) were translationally fused to the C-terminus of a full-length FXR and to the SRCP, respectively. Complementation was driven by the protein-protein interaction between SRCP-EA and a ProLink-labeled FXR. Upon FXR-SRCP binding, the two fragments of 3-gal complement, forming a functional enzyme capable of hydrolyzing a substrate molecule and generating a chemiluminescent signal.
CHO-K1 cells containing SRCP-EA and ProLink-labeled FXR were plated in 384-well microplates and incubated at 37° C. overnight. A positive control FXR agonist, GW4064 (0-10 micromolar), or test compounds (0-10 micromolar) were added to plated cells and incubated at 37° C. for 6h (final DMSO vehicle concentration was 1%). The assay signal was generated by addition of 50% (v/v) detection reagent (19:5:1, cell assay buffer: substrate reagent 1: substrate reagent 2, DiscoverX) followed by incubation for 1h at ambient room temperature. Microplates were analyzed using an Envision reader (PerkinElmer Life and Analytical Sciences, Signal=chemiluminescence).

[2] = biological target: ligand binding domain (LBD) of recombinant human FXR (Homo sapiens (Human), UniProt Q96RI1); assay: FXR cell free coactivator (SRC-1) recruitment assay, TR-FRET; conditions: FXR LBD (amino acids 244-476) with labeled SRC-1 domain, 25° C. for 60 minutes, activity relative to CDCA maximum; read-out: EC50 FXR- Biochemical TR-FRET/μM
Sequence of ligand binding domain (LBD) of recombinant human FXR (Q96RI1 254-486): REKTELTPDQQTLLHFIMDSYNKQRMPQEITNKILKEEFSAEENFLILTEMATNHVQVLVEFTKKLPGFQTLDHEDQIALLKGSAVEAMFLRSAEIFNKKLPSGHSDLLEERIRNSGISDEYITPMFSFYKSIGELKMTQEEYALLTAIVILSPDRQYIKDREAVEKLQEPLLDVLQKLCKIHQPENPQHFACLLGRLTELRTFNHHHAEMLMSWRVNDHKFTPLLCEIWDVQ
Sequence of ligand binding domain (LBD) of recombinant human FXR (Q15788 whole entry partner, the tested form may be a part): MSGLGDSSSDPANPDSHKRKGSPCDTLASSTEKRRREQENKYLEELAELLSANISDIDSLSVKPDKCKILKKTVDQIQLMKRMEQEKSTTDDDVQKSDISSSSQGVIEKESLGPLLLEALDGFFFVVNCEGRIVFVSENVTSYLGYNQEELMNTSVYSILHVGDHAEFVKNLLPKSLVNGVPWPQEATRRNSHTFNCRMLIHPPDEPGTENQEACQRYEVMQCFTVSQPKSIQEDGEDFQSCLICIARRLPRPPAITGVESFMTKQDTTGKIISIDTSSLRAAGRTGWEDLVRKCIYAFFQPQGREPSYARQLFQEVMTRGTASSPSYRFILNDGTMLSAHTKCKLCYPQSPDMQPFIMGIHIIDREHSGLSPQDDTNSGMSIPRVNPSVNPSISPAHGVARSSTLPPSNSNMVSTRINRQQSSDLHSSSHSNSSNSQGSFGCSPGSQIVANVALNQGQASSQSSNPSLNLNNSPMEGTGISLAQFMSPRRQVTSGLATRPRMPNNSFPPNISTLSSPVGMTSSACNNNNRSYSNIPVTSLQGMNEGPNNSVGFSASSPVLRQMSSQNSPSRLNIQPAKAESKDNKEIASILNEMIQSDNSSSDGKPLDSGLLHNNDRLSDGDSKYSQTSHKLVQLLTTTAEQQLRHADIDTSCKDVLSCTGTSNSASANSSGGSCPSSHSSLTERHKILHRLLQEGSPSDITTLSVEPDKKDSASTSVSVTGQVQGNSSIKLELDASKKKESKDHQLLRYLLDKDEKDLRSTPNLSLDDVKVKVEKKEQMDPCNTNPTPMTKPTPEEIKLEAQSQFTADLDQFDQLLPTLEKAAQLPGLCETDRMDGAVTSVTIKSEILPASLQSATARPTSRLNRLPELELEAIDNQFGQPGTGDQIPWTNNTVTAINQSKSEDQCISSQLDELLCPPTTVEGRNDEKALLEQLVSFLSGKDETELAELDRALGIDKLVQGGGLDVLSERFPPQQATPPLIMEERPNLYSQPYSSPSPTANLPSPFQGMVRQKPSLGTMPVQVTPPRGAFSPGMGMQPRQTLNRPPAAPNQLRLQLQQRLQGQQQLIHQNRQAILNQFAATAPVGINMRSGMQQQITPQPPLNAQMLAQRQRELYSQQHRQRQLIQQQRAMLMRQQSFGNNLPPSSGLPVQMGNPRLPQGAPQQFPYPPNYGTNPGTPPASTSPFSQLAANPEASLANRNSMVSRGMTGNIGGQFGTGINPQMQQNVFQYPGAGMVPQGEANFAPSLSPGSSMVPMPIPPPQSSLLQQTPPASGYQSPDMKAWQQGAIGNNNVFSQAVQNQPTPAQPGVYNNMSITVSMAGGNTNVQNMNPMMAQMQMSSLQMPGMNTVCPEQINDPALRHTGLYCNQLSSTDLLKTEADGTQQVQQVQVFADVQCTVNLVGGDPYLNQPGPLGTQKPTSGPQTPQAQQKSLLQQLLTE
Experimental: A cell free coactivator recruitment assay was developed for FXR, to measure the functional potency of novel FXR compounds. In this assay, novel FXR compounds were bound to the ligand binding domain (LBD) of recombinant human FXR. The ability of this liganded homodimeric complex to recruit the co-activator protein steroid receptor coactivator 1 (SRC-1) was measured using Time-Resolved Fluorescence Resonance Energy Transfer (TR-FRET).
The LBD of human FXR (amino acids 244-476) was cloned into an expression vector for protein expression in SF9 insect cells. Purified FXR LBD was incubated in TR-FRET coregulator buffer G (Eurofins) with test compounds (0-10 micromolar) and a labeled nuclear receptor interaction domain of SRC-1 at 25° C. for 60 minutes (final DMSO vehicle concentration was 1.2%). Assays were analyzed using an Envision TR-FRET reader (PerkinElmer Life and Analytical Sciences). Compound activity at each concentration was defined as a percentage of the maximal activity of the natural FXR ligand agonist chenodeoxycholic acid (CDCA) generating a dose response curve.

| SMILES | EC50 [1] | EC50 [2] |
| --- | --- | --- |
| O=c1[nH]nc(-c2ccc(N3CCC(OCc4c(-c5c(Cl)cccc5Cl)noc4C4CC4)CC3)nc2)o1 [Example 37, 5-(6-(4-((5-cyclopropyl-3-(2,6-dichlorophenyl)isoxazol-4-yl)methoxy)piperidin-1-yl)pyridin-3-yl)-1,3,4-oxadiazol-2(3H)-one] | 274 nM | 0.0494 µM |
| O=c1[nH]nc(-c2ccc(N3CCC(OCc4c(-c5c(Cl)cccc5Cl)noc4C4CC4)CC3)cn2)o1 [Example 40, 5-(5-(4-((5-cyclopropyl-3-(2,6-dichlorophenyl)isoxazol-4-yl)methoxy)piperidin-1-yl)pyridin-2-yl)-1,3,4-oxadiazol-2(3H)-one] | 341 nM | 0.076 µM |
| O=c1[nH]nc(-c2ccc(N3CCC(OCc4c(-c5c(Cl)cccc5Cl)noc4C4CC4)CC3)cc2F)c(=O)[nH]1 [Example 41, 6-(4-(4-((5-cyclopropyl-3-(2,6-dichlorophenyl)isoxazol-4-yl)methoxy)piperidin-1-yl)-2-fluorophenyl)-1,2,4-triazine-3,5(2H,4H)-dione] | 244 nM | 0.0584 µM |
| O=c1[nH]c(-c2cc(N3CCC(OCc4c(-c5c(Cl)cccc5Cl)noc4C4CC4)CC3)no2)no1 [Example 42, 3-(3-(4-((5-cyclopropyl-3-(2,6-dichlorophenyl)isoxazol-4-yl)methoxy)piperidin-1-yl)isoxazol-5-yl)-1,2,4-oxadiazol-5(4H)-one] | 10000 nM | 0.139 µM |
| O=c1[nH]nc(-c2ccc(N3CCC(OCc4c(-c5c(Cl)cccc5Cl)noc4C4CC4)CC3)nc2)c(=O)[nH]1 [Example 43, 6-(6-(4-((5-cyclopropyl-3-(2,6-dichlorophenyl)isoxazol-4-yl)methoxy)piperidin-1-yl)pyridin-3-yl)-1,2,4-triazine-3,5(2H,4H)-dione] | 248 nM | 0.0112 µM |
| O=c1[nH]c(-c2n[nH]c(N3CCC(OCc4c(-c5c(Cl)cccc5Cl)noc4C4CC4)CC3)n2)no1 [Example 45, 3-(5-(4-((5-cyclopropyl-3-(2,6-dichlorophenyl)isoxazol-4-yl)methoxy)piperidin-1-yl)-1H-1,2,4-triazol-3-yl)-1,2,4-oxadiazol-5(4H)-one] | 10000 nM | 0.61 µM |
| O=c1[nH]nc(-c2ccc(N3CCC(OCc4c(-c5c(Cl)cccc5Cl)noc4C4CC4)CC3)cn2)c(=O)[nH]1 [Example 46, 6-(5-(4-((5-cyclopropyl-3-(2,6-dichlorophenyl)isoxazol-4-yl)methoxy)piperidin-1-yl)pyridin-2-yl)-1,2,4-triazine-3,5(2H,4H)-dione] | 10000 nM | 0.0746 µM |
| O=c1[nH]nc(-c2ccc(N3CCC(OCc4c(-c5c(Cl)cccc5Cl)noc4C4CC4)CC3)cc2F)o1 [Example 48, 5-(4-(4-((5-cyclopropyl-3-(2,6-dichlorophenyl)isoxazol-4-yl)methoxy)piperidin-1-yl)-2-fluorophenyl)-1,3,4-oxadiazol-2(3H)-one] | 336 nM | 0.0416 µM |
| O=c1[nH]c(-c2ccc(N3[C@@H]4CC[C@H]3C[C@@H](OCc3c(-c5ccccc5OC(F)(F)F)noc3C3CC3)C4)cc2)no1 [Example 50, 3-(4-((1R,3r,5S)-3-((5-cyclopropyl-3-(2-(trifluoromethoxy)phenyl)isoxazol-4-yl)methoxy)-8-azabicyclo[3.2.1]octan-8-yl)phenyl)-1,2,4-oxadiazol-5(4H)-one] | 53.8 nM | 0.0032 µM |

More lines, now with the values ahead:

| EC50 [1] | EC50 [2] | SMILES |
| --- | --- | --- |
| 702 nM | 0.142 µM | C[C@H]1CN(c2ccc(-c3noc(=O)[nH]3)cc2)CC[C@@H]1OCc1c(-c2c(Cl)cccc2Cl)noc1C1CC1 [Example 33, 3-(4-((3S,4S)-4-((5-cyclopropyl-3-(2,6-dichlorophenyl)isoxazol-4-yl)methoxy)-3-methylpiperidin-1-yl)phenyl)-1,2,4-oxadiazol-5(4H)-one] |
| 785 nM | 0.153 µM | C[C@@H]1CN(c2ccc(-c3noc(=O)[nH]3)cc2)CC[C@H]1OCc1c(-c2c(Cl)cccc2Cl)noc1C1CC1 [Example 34, 3-(4-((3R,4R)-4-((5-cyclopropyl-3-(2,6-dichlorophenyl)isoxazol-4-yl)methoxy)-3-methylpiperidin-1-yl)phenyl)-1,2,4-oxadiazol-5(4H)-one] |
| 324 nM | 0.0435 µM | O=c1[nH]c(-c2ccc(N3CCC(OCc4c(-c5c(Cl)cccc5Cl)noc4C4CC4)CC3)s2)no1 [Example 35, 3-(5-(4-((5-cyclopropyl-3-(2,6-dichlorophenyl)isoxazol-4-yl)methoxy)piperidin-1-yl)thiophen-2-yl)-1,2,4-oxadiazol-5(4H)-one] |
| 113 nM | 0.0188 µM | O=c1[nH]c(-c2ccc(N3CCC(OCc4c(-c5ccccc5OC(F)(F)F)noc4C4CC4)CC3)cc2)no1 [Example 36, 3-(4-(4-((5-cyclopropyl-3-(2-(trifluoromethoxy)phenyl)isoxazol-4-yl)methoxy)piperidin-1-yl)phenyl)-1,2,4-oxadiazol-5(4H)-one] |
| 263 nM | 0.0286 µM | O=c1[nH]c(-c2csc(N3CCC(OCc4c(-c5c(Cl)cccc5Cl)noc4C4CC4)CC3)c2)no1 [Example 38, 3-(5-(4-((5-cyclopropyl-3-(2,6-dichlorophenyl)isoxazol-4-yl)methoxy)piperidin-1-yl)thiophen-3-yl)-1,2,4-oxadiazol-5(4H)-one] |
| 154 nM | 0.0161 µM | O=c1[nH]c(-c2ccc(N3CCC(OCc4c(-c5c(Cl)cccc5Cl)noc4C4CC4)CC3)c(F)c2)no1 [Example 39, 3-(4-(4-((5-cyclopropyl-3-(2,6-dichlorophenyl)isoxazol-4-yl)methoxy)piperidin-1-yl)-3-fluorophenyl)-1,2,4-oxadiazol-5(4H)-one] |
| 371 nM | 0.0213 µM | O=c1[nH]c(-c2ccc(N3CCC(OCc4c(-c5ccccc5Cl)noc4C4CC4)CC3)cc2)no1 [Example 44, 3-(4-(4-((3-(2-chlorophenyl)-5-cyclopropylisoxazol-4-yl)methoxy)piperidin-1-yl)phenyl)-1,2,4-oxadiazol-5(4H)-one] |
| 76.7 nM | 0.0037 µM | O=c1[nH]c(-c2ccc(N3CCCC(OCc4c(-c5ccccc5OC(F)(F)F)noc4C4CC4)CC3)cc2)no1 (centres unmarked) [Example 47, 3-(4-(4-((5-cyclopropyl-3-(2-(trifluoromethoxy)phenyl)isoxazol-4-yl)methoxy)azepan-1-yl)phenyl)-1,2,4-oxadiazol-5(4H)-one] |
| 149 nM | 0.0117 µM | O=c1[nH]c(-c2ccc(N3CCCC(OCc4c(-c5c(F)cccc5F)noc4C4CC4)CC3)cc2)no1 (centres unmarked) [Example 49, 3-(4-(4-((5-cyclopropyl-3-(2,6-difluorophenyl)isoxazol-4-yl)methoxy)azepan-1-yl)phenyl)-1,2,4-oxadiazol-5(4H)-one] |
| 1290 nM | 0.325 µM | O=c1[nH]nc(-c2ccc(N3CCC(OCc4c(-c5ccccc5OC(F)(F)F)noc4C4CC4)CC3)cc2)o1 [Example 51, 5-(4-(4-((5-cyclopropyl-3-(2-(trifluoromethoxy)phenyl)isoxazol-4-yl)methoxy)piperidin-1-yl)phenyl)-1,3,4-oxadiazol-2(3H)-one] |
| 1630 nM | 0.143 µM | O=c1cc(-c2ccc(N3CCC(OCc4c(-c5ccccc5OC(F)(F)F)noc4C4CC4)CC3)cc2)o[nH]1 [Example 52, 5-(4-(4-((5-cyclopropyl-3-(2-(trifluoromethoxy)phenyl)isoxazol-4-yl)methoxy)piperidin-1-yl)phenyl)isoxazol-3(2H)-one] |
| 94.3 nM | 0.009 µM | O=c1[nH]c(-c2ccc(N3CCC(OCc4c(-c5c(Cl)cccc5Cl)noc4C4CC4)C(F)(F)C3)cc2)no1 (centres unmarked) [Example 53, 3-(4-(4-((5-cyclopropyl-3-(2,6-dichlorophenyl)isoxazol-4-yl)methoxy)-3,3-difluoropiperidin-1-yl)phenyl)-1,2,4-oxadiazol-5(4H)-one] |
| 715 nM | 0.0376 µM | O=c1[nH]c(-c2ccc(N3CCC(OCc4c(-c5ccccc5OC(F)(F)F)noc4C4CC4)C(F)(F)C3)cc2)no1 (centres unmarked) [Example 54, 3-(4-(4-((5-cyclopropyl-3-(2-(trifluoromethoxy)phenyl)isoxazol-4-yl)methoxy)-3,3-difluoropiperidin-1-yl)phenyl)-1,2,4-oxadiazol-5(4H)-one] |
